Measurements reported in ChEMBL document CHEMBL4651402, “Screening of ~5500 FDA-approved drugs and clinical candidates for anti-SARS-CoV-2 activity” (2021).
Where a name gives a salt, the structure may show the parent alone.

Test system: SARS-CoV-2
Assay: microbe, parasite or virus in culture
Settings: Severe acute respiratory syndrome coronavirus 2, Vero C1008, 48 h

## O=C1CCCC2C3CC(CN12)[C@@H]1CCCCN1C3 (some centres undefined)
  IC50: > 20 µM
read-out: pIC50 (converted)
  IC50: > 20 µM

## CCNC(=O)N1CCN(CCCC(c2ccc(F)cc2)c2ccc(F)cc2)CC1 [AMPEROZIDE]
  IC50: > 20 µM
read-out: pIC50 (converted)
  IC50: > 20 µM

## O=C(O)C=Cc1ccc(O)c(O)c1
  IC50: > 20 µM
read-out: pIC50 (converted)
  IC50: > 20 µM

## CC(C)NCC(O)c1ccc2ccccc2c1 (centres undefined) [PRONETALOL]
  IC50: > 20 µM
read-out: pIC50 (converted)
  IC50: > 20 µM

## O=C(/C=C/c1ccc2c(c1)OCO2)N1CCCCC1 [ILEPCIMIDE]
  IC50: > 20 µM
read-out: pIC50 (converted)
  IC50: > 20 µM

## [N-]=[N+]=N[C@]1(CO)O[C@@H](n2ccc(N)nc2=O)[C@H](O)[C@@H]1O [4'-AZIDOCYTIDINE]
  IC50: > 20 µM
read-out: pIC50 (converted)
  IC50: > 20 µM

## N#Cc1ccc(/C=N/NC(N)=S)s1 [CITENAZONE]
  IC50: > 20 µM
read-out: pIC50 (converted)
  IC50: > 20 µM

## Cc1cccc(N(C)C(=S)Oc2ccc3c(c2)C2CCC3C2)c1 (centres undefined) [TOLCICLATE]
  IC50: > 20 µM
read-out: pIC50 (converted)
  IC50: > 20 µM

## CC1CC(OC(=O)C(O)c2ccccc2)CC(C)(C)N1C (centres undefined) [EUCATROPINE]
  IC50: > 20 µM
read-out: pIC50 (converted)
  IC50: > 20 µM

## CCN1CC2CN(C)CC(C1)C2OC(=O)c1ccc(Cl)cc1 (centres undefined)
  IC50: > 20 µM
read-out: pIC50 (converted)
  IC50: > 20 µM

## CNC(C)CC1CCCC1 (centres undefined) [CYCLOPENTAMINE]
  IC50: > 20 µM
read-out: pIC50 (converted)
  IC50: > 20 µM

## Cc1cccc(Nc2ccncc2S(=O)(=O)NC(=O)NC(C)C)c1 [TORSEMIDE]
  IC50: > 20 µM
read-out: pIC50 (converted)
  IC50: > 20 µM

## CC(=O)N1CCN(c2ccc(OC[C@@H]3CO[C@](Cn4ccnc4)(c4ccc(Cl)cc4Cl)O3)cc2)CC1
  IC50: > 20 µM
read-out: pIC50 (converted)
  IC50: > 20 µM

## N#Cc1cc(NC(=O)C(=O)O)c(Cl)c(NC(=O)C(=O)O)c1 [LODOXAMIDE]
  IC50: > 20 µM
read-out: pIC50 (converted)
  IC50: > 20 µM

## N=C(N)NC(=N)N1CCOCC1 [MOROXYDINE]
  IC50: > 20 µM
read-out: pIC50 (converted)
  IC50: > 20 µM

## COc1ccc(-c2cc(=O)c3c(O)cc(O[C@@H]4O[C@H](CO[C@H]5O[C@H](C)[C@@H](O)[C@H](O)[C@@H]5O)[C@@H](O)[C@H](O)[C@H]4O)cc3o2)cc1O
  IC50: > 20 µM
read-out: pIC50 (converted)
  IC50: > 20 µM

## CC(=O)N[C@@H](CS)C(=O)O [ACETYLCYSTEINE]
  IC50: > 20 µM
read-out: pIC50 (converted)
  IC50: > 20 µM

## CN1Cc2ccccc2[C@@H]2c3cccc4[nH]cc(c34)C[C@H]21
  IC50: > 20 µM
read-out: pIC50 (converted)
  IC50: > 20 µM

## O/N=C1/CCCC/C1=N\O
  IC50: > 20 µM
read-out: pIC50 (converted)
  IC50: > 20 µM

## COC(=O)Nc1nc2cc(Sc3ccccc3)ccc2[nH]1 [FENBENDAZOLE]
  IC50: > 20 µM
read-out: pIC50 (converted)
  IC50: > 20 µM

## CC12CCC(=O)C=C1C=CC1C2CCC2(C)C1CCC2(O)CCC(=O)O (centres undefined)
  IC50: > 20 µM
read-out: pIC50 (converted)
  IC50: > 20 µM

## COC1=CC(=O)C=C(OC)C1=O [2,6-DIMETHOXYQUINONE]
  IC50: > 20 µM
read-out: pIC50 (converted)
  IC50: > 20 µM

## Nc1ccc(/N=N/c2ccccc2)c(N)n1 [PHENAZOPYRIDINE]
  IC50: > 20 µM
read-out: pIC50 (converted)
  IC50: > 20 µM

## N#Cc1ccc(C(c2ccc(C#N)cc2)n2cncn2)cc1 [LETROZOLE]
  IC50: > 20 µM
read-out: pIC50 (converted)
  IC50: > 20 µM

## CC(C)COCC(CN(Cc1ccccc1)c1ccccc1)N1CCCC1 (centres undefined) [BEPRIDIL]
  IC50: > 20 µM
read-out: pIC50 (converted)
  IC50: > 20 µM

## CC(C)Cc1ccc(CC(=O)O)cc1 [IBUFENAC]
  IC50: > 20 µM
read-out: pIC50 (converted)
  IC50: > 20 µM

## CC(C)(C)C(O)/C=C/c1ccc2c(c1)OCO2 (centres undefined) [STIRIPENTOL]
  IC50: > 20 µM
read-out: pIC50 (converted)
  IC50: > 20 µM

## CC[C@@]1([C@@H]2O[C@@H]([C@H]3O[C@@](O)(CO)[C@H](C)C[C@@H]3C)C[C@@H]2C)CC[C@H]([C@]2(C)CC[C@]3(C[C@H](O)[C@@H](C)[C@@H]([C@@H](C)[C@@H](OC)[C@H](C)C(=O)O)O3)O2)O1 [MONENSIN]
  IC50: > 20 µM
read-out: pIC50 (converted)
  IC50: > 20 µM

## O=C1CCC(N2C(=O)c3ccccc3C2=O)C(=O)N1 (centres undefined) [THALIDOMIDE]
  IC50: > 20 µM
read-out: pIC50 (converted)
  IC50: > 20 µM

## CCNC(=O)NCCCOc1cccc(CN2CCCCC2)c1 [DALCOTIDINE]
  IC50: > 20 µM
read-out: pIC50 (converted)
  IC50: > 20 µM

## CC12CCC3C(CC[C@H]4C[C@H](Cl)CCC34C)C1CCC2=O (some centres undefined)
  IC50: > 20 µM
read-out: pIC50 (converted)
  IC50: > 20 µM

## CCN(CCNC(=O)Nc1ccccc1Br)c1cccc(C)c1
  IC50: > 20 µM
read-out: pIC50 (converted)
  IC50: > 20 µM

## COc1ccc(-n2[nH]c(=O)c3[nH]c4cc(Cl)ccc4c(=O)c3c2=O)c(C)c1
  IC50: > 20 µM
read-out: pIC50 (converted)
  IC50: > 20 µM

## O=c1oc2cc(O)ccc2c2ccc(O)cc12
  IC50: > 20 µM
read-out: pIC50 (converted)
  IC50: > 20 µM

## CCOCCn1c(N2CCCN(C)CC2)nc2ccccc21 [EMEDASTINE]
  IC50: > 20 µM
read-out: pIC50 (converted)
  IC50: > 20 µM

## CC12C=CC(=O)C=C1CCC1C2C(O)CC2(C)C1CC[C@]2(O)C(=O)COC(=O)CCC(=O)O (some centres undefined)
  IC50: > 20 µM
read-out: pIC50 (converted)
  IC50: > 20 µM

## CCC(O)C(CC(C)N(C)C)(c1ccccc1)c1ccccc1 (centres undefined) [DIMEPHEPTANOL]
  IC50: > 20 µM
read-out: pIC50 (converted)
  IC50: > 20 µM

## CNCC(O)c1cccc(O)c1 (centres undefined)
  IC50: > 20 µM
read-out: pIC50 (converted)
  IC50: > 20 µM

## CC(C)=CCc1c2c(c3occ(-c4ccc(O)cc4)c(=O)c3c1O)C=CC(C)(C)O2 [OSAJIN]
  IC50: > 20 µM
read-out: pIC50 (converted)
  IC50: > 20 µM

## O=C(NCc1ccccc1)OCCO [BURAMATE]
  IC50: > 20 µM
read-out: pIC50 (converted)
  IC50: > 20 µM

## CN1CCN(c2ccc(OC(F)(F)F)c(Nc3ncc4c(n3)-c3c(c(C(N)=O)nn3CCO)CC4)c2)CC1 [ONVANSERTIB]
  IC50: > 20 µM
read-out: pIC50 (converted)
  IC50: > 20 µM

## COc1cccc([C@H]2C[C@@H](N[C@H](C)c3ccccc3)C(=O)N2c2ccc(C(F)(F)F)cc2)c1 [MEPPEP]
  IC50: > 20 µM
read-out: pIC50 (converted)
  IC50: > 20 µM

## CC(=O)SC[C@@H](C)C(=O)N1CCC[C@H]1C(=O)N[C@@H](Cc1ccccc1)C(=O)O
  IC50: > 20 µM
read-out: pIC50 (converted)
  IC50: > 20 µM

## CC(C)[C@H](N/C(=N\S(=O)(=O)c1ccc(Cl)cc1)N1C[C@H](c2ccccc2)C(c2ccc(Cl)cc2)=N1)C(N)=O
  IC50: > 20 µM
read-out: pIC50 (converted)
  IC50: > 20 µM

## CC(CC(C(N)=O)(c1ccccc1)c1ccccc1)N(C)C (centres undefined) [AMINOPENTAMIDE SULFATE]
  IC50: > 20 µM
read-out: pIC50 (converted)
  IC50: > 20 µM

## CC(C)=CCC/C(C)=C/COc1ccc2ccc(=O)oc2c1
  IC50: > 20 µM
read-out: pIC50 (converted)
  IC50: > 20 µM

## NNCc1ccccc1 [BENZYLHYDRAZINE]
  IC50: > 20 µM
read-out: pIC50 (converted)
  IC50: > 20 µM

## NC(=O)c1[nH]cnc1O
  IC50: > 20 µM
read-out: pIC50 (converted)
  IC50: > 20 µM

## O[C@H]1[C@H]2c3cc4c(cc3CN3CCC(=C[C@@H]1O)[C@H]23)OCO4 [LYCORINE]
  IC50: > 20 µM
read-out: pIC50 (converted)
  IC50: > 20 µM

## CCN1C(=O)OC(C)(C)C1=O [ETHADIONE]
  IC50: > 20 µM
read-out: pIC50 (converted)
  IC50: > 20 µM

## COc1cc(N)c(Cl)cc1C(=O)NC1CCN(CCCOc2ccc(F)cc2)CC1OC (centres undefined) [CISAPRIDE]
  IC50: > 20 µM
read-out: pIC50 (converted)
  IC50: > 20 µM

## CNC(=O)c1ccc(N2C(=S)N(c3cnc(C#N)c(C(F)(F)F)c3)C(=O)C23CCC3)cc1F [APALUTAMIDE]
  IC50: > 20 µM
read-out: pIC50 (converted)
  IC50: > 20 µM

## OC[C@@H]1CCCN2CCCCC12 (some centres undefined)
  IC50: > 20 µM
read-out: pIC50 (converted)
  IC50: > 20 µM

## N[C@@]1(C(=O)O)CS(=O)(=O)[C@H]2[C@H](C(=O)O)[C@H]21 [LY404039]
  IC50: > 20 µM
read-out: pIC50 (converted)
  IC50: > 20 µM

## CNCCCC1(c2ccccc2)OC(C)(C)c2ccccc21 (centres undefined) [TALOPRAM]
  IC50: > 20 µM
read-out: pIC50 (converted)
  IC50: > 20 µM

## Cc1c(N(C)CS(=O)(=O)O)c(=O)n(-c2ccccc2)n1C [METAMIZOLE]
  IC50: > 20 µM
read-out: pIC50 (converted)
  IC50: > 20 µM

## COc1ccc(CCNCCC(=O)N2CCCSc3ccccc32)cc1OC
  IC50: > 20 µM
read-out: pIC50 (converted)
  IC50: > 20 µM

## Cc1cn([C@H]2C[C@H](N=[N+]=[N-])[C@@H](CO)O2)c(=O)[nH]c1=O [ZIDOVUDINE]
  IC50: > 100 µM
read-out: pIC50 (converted)
  IC50: > 100 µM

## NC(=O)C1(N2CCCCC2)CCN(CCCC(=O)c2ccc(F)cc2)CC1 [PIPAMPERONE]
  IC50: > 20 µM
read-out: pIC50 (converted)
  IC50: > 20 µM

## CC(CN1CCN(CCOCCO)CC1)CN1c2ccccc2Sc2ccccc21 (centres undefined) [DIXYRAZINE]
  IC50: > 20 µM
read-out: pIC50 (converted)
  IC50: > 20 µM

## O=C1Nc2ccc(Cl)cc2C(c2ccccc2)=NC1O (centres undefined) [OXAZEPAM]
  IC50: > 20 µM
read-out: pIC50 (converted)
  IC50: > 20 µM

## Cc1ncc(CO)c(CO)c1O [PYRIDOXINE]
  IC50: > 20 µM
read-out: pIC50 (converted)
  IC50: > 20 µM

## Clc1ccccc1CN1CCc2sccc2C1 [TICLOPIDINE]
  IC50: > 20 µM
read-out: pIC50 (converted)
  IC50: > 20 µM

## CC12CCC3c4ccc(OS(=O)(=O)O)cc4CCC3C1CCC2O (centres undefined)
  IC50: > 20 µM
read-out: pIC50 (converted)
  IC50: > 20 µM

## COc1cc(C)c2c(c1C=O)Oc1c(c(C)c(O)c3c1[C@H](O)OC3=O)OC2=O
  IC50: > 20 µM
read-out: pIC50 (converted)
  IC50: > 20 µM

## CN(C)CC(=O)O
  IC50: > 20 µM
read-out: pIC50 (converted)
  IC50: > 20 µM

## Cc1nccn1CC1CCc2c(c3ccccc3n2C)C1=O (centres undefined) [ONDANSETRON]
  IC50: > 20 µM
read-out: pIC50 (converted)
  IC50: > 20 µM
